Measurements: ChEMBL document CHEMBL5390221, “Synthesis and biological activity assay of novel camptothecin-peptidic conjugates based on PEPT1” (Bioorg Med Chem Lett, 2023)

Experiments:
BXPC-3 = assay: Cytotoxicity against human BXPC-3 cells assessed as inhibition of cell growth; assay type: functional, cell-based
NCI-H520 = assay: Cytotoxicity against human NCI-H520 cells assessed as inhibition of cell growth; assay type: functional, cell-based
HepG2 = assay: Cytotoxicity against human HepG2 cells assessed as inhibition of cell growth; assay type: functional, cell-based
DU-145 = assay: Cytotoxicity against human DU-145 cells assessed as inhibition of cell growth; assay type: functional, cell-based
[1] = Cytotoxicity against human MPC2 cells assessed as inhibition of cell growth; assay type: functional, cell-based
Hep 3B2 = assay: Cytotoxicity against human Hep3B cells assessed as inhibition of cell growth; assay type: functional, cell-based
[2] = target: T1, Solute carrier family 15 member 1 (Homo sapiens) (UniProt P46059); assay: Inhibition of PEPT1 (unknown origin) expressed in HEK293T cells assessed as inhibition of PEPT1 mediated Gly-Sar uptake using Gly-Sar as substrate at 20 uM relative to control; assay type: cell-based
T1 sequence (whole entry): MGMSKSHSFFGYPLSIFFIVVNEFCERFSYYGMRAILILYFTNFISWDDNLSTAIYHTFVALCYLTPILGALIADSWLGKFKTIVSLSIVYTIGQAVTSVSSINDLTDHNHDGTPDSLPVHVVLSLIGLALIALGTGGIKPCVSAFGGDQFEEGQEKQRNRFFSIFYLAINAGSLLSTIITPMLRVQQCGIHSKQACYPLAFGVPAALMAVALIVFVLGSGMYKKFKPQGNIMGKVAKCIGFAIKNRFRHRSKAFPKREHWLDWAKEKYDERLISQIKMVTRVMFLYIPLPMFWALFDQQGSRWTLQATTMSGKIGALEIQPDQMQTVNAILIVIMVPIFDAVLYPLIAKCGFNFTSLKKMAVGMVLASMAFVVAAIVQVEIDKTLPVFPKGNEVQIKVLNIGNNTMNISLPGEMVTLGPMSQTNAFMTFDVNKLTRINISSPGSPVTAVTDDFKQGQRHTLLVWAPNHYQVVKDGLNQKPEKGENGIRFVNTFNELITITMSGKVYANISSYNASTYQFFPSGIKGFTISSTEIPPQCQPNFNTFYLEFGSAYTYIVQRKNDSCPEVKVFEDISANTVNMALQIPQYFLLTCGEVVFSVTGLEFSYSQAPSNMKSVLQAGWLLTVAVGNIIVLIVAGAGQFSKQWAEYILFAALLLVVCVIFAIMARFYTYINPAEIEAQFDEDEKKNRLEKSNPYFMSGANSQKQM

Row | inhibition [2] | Structure (SMILES) | IC50 (BXPC-3) | IC50 (NCI-H520) | IC50 (HepG2) | IC50 (DU-145) | IC50 [1] | IC50 (Hep 3B2)
1 |  | CC[C@H](C)[C@H](NC(C)=O)C(=O)NCC(=O)O[C@]1(CC)C(=O)OCc2c1cc1n(c2=O)Cc2cc3ccccc3nc2-1 | 0.153 µM | 0.109 µM | 0.0704 µM | 0.0944 µM | 0.197 µM | 0.847 µM
2 | > 50% | CC[C@@]1(OC(=O)CNC(=O)[C@@H](NC(C)=O)C(C)C)C(=O)OCc2c1cc1n(c2=O)Cc2cc3ccccc3nc2-1 | 0.0548 µM | 0.125 µM | 0.15 µM | 0.087 µM | 0.209 µM | 0.914 µM
3 | > 50% | CC[C@@]1(OC(=O)CNC(=O)[C@H](CC(N)=O)NC(=O)OC(C)(C)C)C(=O)OCc2c1cc1n(c2=O)Cc2cc3ccccc3nc2-1 | 0.0842 µM | 0.058 µM | 0.0886 µM | 0.0899 µM | 0.26 µM | 0.784 µM
4 |  | CCCCCC(=O)NCC(=O)O[C@]1(CC)C(=O)OCc2c1cc1n(c2=O)Cc2cc3ccccc3nc2-1 | 0.105 µM | 0.162 µM | 0.114 µM | 0.0461 µM | 0.0794 µM | 1.53 µM
5 | > 50% | CC[C@@]1(OC(=O)CNC(=O)[C@H](CCC(N)=O)NC(=O)OC(C)(C)C)C(=O)OCc2c1cc1n(c2=O)Cc2cc3ccccc3nc2-1 | 0.121 µM | 0.135 µM | 0.144 µM | 0.144 µM | 0.387 µM | 0.999 µM
6 |  | CC[C@@]1(OC(=O)CNC(=O)[C@H](CC(C)C)NC(=O)OC(C)(C)C)C(=O)OCc2c1cc1n(c2=O)Cc2cc3ccccc3nc2-1 | 0.162 µM | 0.0348 µM | 0.0876 µM | 0.0447 µM | 0.125 µM | 1.06 µM
7 |  | CC[C@@]1(OC(=O)CNC(=O)[C@H](C)NC(C)=O)C(=O)OCc2c1cc1n(c2=O)Cc2cc3ccccc3nc2-1 | 0.108 µM | 0.0693 µM | 0.0887 µM | 0.0675 µM | 0.0914 µM | 1.01 µM
8 |  | CC[C@@]1(OC(=O)CNC(=O)[C@@H](NC(=O)OC(C)(C)C)C(C)C)C(=O)OCc2c1cc1n(c2=O)Cc2cc3ccccc3nc2-1 | 0.143 µM | 0.0785 µM | 0.197 µM | 0.0788 µM | 0.204 µM | 0.872 µM
9 |  | CC[C@@]1(O)C(=O)OCc2c1cc1n(c2=O)Cc2cc3ccccc3nc2-1 [CAMPTOTHECIN] | 0.0625 µM | 0.025 µM | 0.0332 µM | 0.0335 µM | 0.0837 µM | 0.434 µM
10 |  | CC[C@@]1(OC(=O)CNC(=O)C(C)C)C(=O)OCc2c1cc1n(c2=O)Cc2cc3ccccc3nc2-1 | 0.167 µM | 0.0872 µM | 0.129 µM | 0.0554 µM | 0.0971 µM | 0.969 µM
11 |  | CC[C@@]1(OC(=O)CNC(=O)[C@H](Cc2ccccc2)NC(=O)OC(C)(C)C)C(=O)OCc2c1cc1n(c2=O)Cc2cc3ccccc3nc2-1 | 0.0977 µM | 0.0549 µM | 0.0747 µM | 0.0743 µM | 0.206 µM | 1.12 µM
12 | > 50% | CCCC(=O)NCC(=O)O[C@]1(CC)C(=O)OCc2c1cc1n(c2=O)Cc2cc3ccccc3nc2-1 | 0.157 µM | 0.153 µM | 0.0918 µM | 0.055 µM | 0.106 µM | 1.51 µM
13 |  | CC[C@H](C)[C@H](NC(=O)OC(C)(C)C)C(=O)NCC(=O)O[C@]1(CC)C(=O)OCc2c1cc1n(c2=O)Cc2cc3ccccc3nc2-1 | 0.222 µM | 0.0585 µM | 0.176 µM | 0.097 µM | 0.166 µM | 1.77 µM
14 | > 50% | CC[C@@]1(OC(=O)CNC(=O)[C@H](Cc2ccccc2)NC(C)=O)C(=O)OCc2c1cc1n(c2=O)Cc2cc3ccccc3nc2-1 | 0.0895 µM | 0.0569 µM | 0.0604 µM | 0.0517 µM | 0.102 µM | 0.973 µM
15 | > 50% | CCC(=O)NCC(=O)O[C@]1(CC)C(=O)OCc2c1cc1n(c2=O)Cc2cc3ccccc3nc2-1 | 0.123 µM | 0.166 µM | 0.109 µM | 0.0528 µM | 0.155 µM | 1.01 µM
16 |  | CC[C@@]1(OC(=O)CNC(=O)[C@H](C)NC(=O)OC(C)(C)C)C(=O)OCc2c1cc1n(c2=O)Cc2cc3ccccc3nc2-1 | 0.0928 µM | 0.0679 µM | 0.114 µM | 0.0681 µM | 0.18 µM | 0.85 µM
17 |  | CC[C@@]1(OC(=O)CNC(=O)CNC(C)=O)C(=O)OCc2c1cc1n(c2=O)Cc2cc3ccccc3nc2-1 | 0.0752 µM | 0.0986 µM | 0.0591 µM | 0.0761 µM | 0.153 µM | 0.767 µM
